Drawing on ChEMBL document CHEMBL5214990, “Novel Aryl Alkamidazole Derivatives as Multifunctional Antifungal Inhibitors: Design, Synthesis, and Biological Evaluation” (J Med Chem, 2022), this text covers MIC50 for 26 compounds.

Format in all cases: functional
One experiment has as its system Candida albicans. As to the kind of experiment: Antifungal activity against Candida albicans ATCC SC5314 assessed as inhibition of fungal growth measured after 72 hrs by CLSI based liquid medium dilution method.
The subject of a further experiment is Pichia kudriavzevii. Put plainly: Antifungal activity against Candida krusei ATCC 6258 assessed as inhibition of fungal growth measured after 72 hrs by CLSI based liquid medium dilution method.
Another experiment concerns Candida tropicalis. As to the kind of experiment: Antifungal activity against Candida tropicalis ATCC 1369 assessed as inhibition of fungal growth measured after 72 hrs by CLSI based liquid medium dilution method.
A further experiment deals with Aspergillus fumigatus. As to the kind of experiment: Antifungal activity against Aspergillus fumigatus KM8001 assessed as inhibition of fungal growth measured after 72 hrs by CLSI based liquid medium dilution method.
A further experiment concerns Cryptococcus neoformans. As to the kind of experiment: Antifungal activity against Cryptococcus neoformans assessed as inhibition of fungal growth measured after 72 hrs by CLSI based liquid medium dilution method.

SMILES strings stand for the structures. ≈ marks a conversion by molar mass, not a printed value.

Take `COc1ccc2cc([C@H](C)C(=O)N[C@H](Cn3ccnc3)c3ccccc3)ccc2c1`: the MIC50 is 1 µg/mL (≈ 2.5 µM) in the experiment with Candida albicans; 0.5 µg/mL (≈ 1.25 µM) with Pichia kudriavzevii; 0.5 µg/mL (≈ 1.25 µM) with Candida tropicalis; above 8 µg/mL in the experiment on Aspergillus fumigatus; 1 µg/mL (≈ 2.5 µM) in the experiment with Cryptococcus neoformans.
Turning to `C[C@H](C(=O)OC(Cn1cnnn1)c1ccc(Cl)cc1)c1ccc(CC2CCCC2=O)cc1` (stereo not given in full), the MIC50 in the experiment on Candida albicans is 2 µg/mL (≈ 4.42 µM); with Pichia kudriavzevii, 2 µg/mL (≈ 4.42 µM); in the experiment on Candida tropicalis, 1 µg/mL (≈ 2.21 µM); with Aspergillus fumigatus, above 8 µg/mL; in the experiment with Cryptococcus neoformans, 4 µg/mL (≈ 8.83 µM).
For `COc1ccc2cc([C@H](C)C(=O)N(C)CC(O)(Cn3ccnc3)c3ccc(Cl)cc3Cl)ccc2c1` (stereo not given in full), the MIC50 with Candida albicans was found to be 0.5 µg/mL (≈ 0.976 µM); with Pichia kudriavzevii, 2 µg/mL (≈ 3.9 µM); with Candida tropicalis it was 0.25 µg/mL (≈ 0.488 µM); in the experiment with Aspergillus fumigatus, 4 µg/mL (≈ 7.81 µM); in the experiment with Cryptococcus neoformans, 0.5 µg/mL (≈ 0.976 µM).
Take `C[C@H](C(=O)N(C)CC(O)(Cn1ccnc1)c1ccc(F)cc1)c1cccc(C(=O)c2ccccc2)c1` (stereo not given in full): the MIC50 in the experiment with Candida albicans is 0.5 µg/mL (≈ 1.03 µM); in the experiment on Pichia kudriavzevii, 1 µg/mL (≈ 2.06 µM); with Candida tropicalis it was 0.5 µg/mL (≈ 1.03 µM); in the experiment on Aspergillus fumigatus, above 8 µg/mL; in the experiment with Cryptococcus neoformans, 0.5 µg/mL (≈ 1.03 µM).
Consider `C[C@H](C(=O)N[C@H](Cn1cncn1)c1ccccc1)c1cccc(C(=O)c2ccccc2)c1`, for which the MIC50 in the experiment with Candida albicans came out at 1 µg/mL (≈ 2.36 µM); in the experiment with Pichia kudriavzevii, 0.5 µg/mL (≈ 1.18 µM); in the experiment on Candida tropicalis, 1 µg/mL (≈ 2.36 µM); in the experiment with Aspergillus fumigatus it was 2 µg/mL (≈ 4.71 µM); in the experiment on Cryptococcus neoformans it was 2 µg/mL (≈ 4.71 µM).
Regarding `COc1ccc2cc([C@H](C)C(=O)N(C)CC(O)(Cn3ccnc3)c3ccc(Cl)cc3)ccc2c1` (stereo not given in full), the MIC50 was 0.5 µg/mL (≈ 1.05 µM) with Candida albicans; 1 µg/mL (≈ 2.09 µM) in the experiment with Pichia kudriavzevii; 1 µg/mL (≈ 2.09 µM) in the experiment with Candida tropicalis; above 8 µg/mL in the experiment with Aspergillus fumigatus; 2 µg/mL (≈ 4.18 µM) in the experiment with Cryptococcus neoformans.
As to `C[C@H](C(=O)N[C@H](Cn1cncn1)c1ccccc1)c1ccc(CC2CCCC2=O)cc1` (stereo not given in full), the MIC50 with Candida albicans was 1 µg/mL (≈ 2.4 µM); in the experiment with Pichia kudriavzevii, 0.5 µg/mL (≈ 1.2 µM); in the experiment with Candida tropicalis, 2 µg/mL (≈ 4.8 µM); with Aspergillus fumigatus, above 8 µg/mL; in the experiment with Cryptococcus neoformans, 2 µg/mL (≈ 4.8 µM).
For `COc1ccc2cc([C@H](C)C(=O)N[C@H](Cn3cncn3)c3ccccc3)ccc2c1`, the MIC50 turned out to be 0.25 µg/mL (≈ 0.624 µM) in the experiment on Candida albicans; 0.25 µg/mL (≈ 0.624 µM) with Pichia kudriavzevii; 0.25 µg/mL (≈ 0.624 µM) with Candida tropicalis; 4 µg/mL (≈ 9.99 µM) in the experiment on Aspergillus fumigatus; 1 µg/mL (≈ 2.5 µM) in the experiment on Cryptococcus neoformans.
`C[C@H](C(=O)OC(Cn1ccnc1)c1ccc(F)cc1)c1ccc(CC2CCCC2=O)cc1` (stereo not given in full): the MIC50 is 2 µg/mL (≈ 4.6 µM) in the experiment with Candida albicans; 1 µg/mL (≈ 2.3 µM) in the experiment on Pichia kudriavzevii; 2 µg/mL (≈ 4.6 µM) in the experiment on Candida tropicalis; above 8 µg/mL in the experiment with Aspergillus fumigatus; 2 µg/mL (≈ 4.6 µM) in the experiment with Cryptococcus neoformans.
For `C[C@H](C(=O)N(C)CC(O)(Cn1ccnc1)c1ccc(Cl)cc1)c1cccc(C(=O)c2ccccc2)c1` (stereo not given in full), the MIC50 with Candida albicans was 0.5 µg/mL (≈ 0.996 µM); with Pichia kudriavzevii it was 0.5 µg/mL (≈ 0.996 µM); in the experiment with Candida tropicalis, 1 µg/mL (≈ 1.99 µM); in the experiment on Aspergillus fumigatus, 4 µg/mL (≈ 7.97 µM); in the experiment with Cryptococcus neoformans it was 0.5 µg/mL (≈ 0.996 µM).
As for `C[C@H](C(=O)OC(Cn1cnnn1)c1ccc(F)cc1)c1ccc(CC2CCCC2=O)cc1` (stereo not given in full), the MIC50 in the experiment on Candida albicans was 1 µg/mL (≈ 2.29 µM); with Pichia kudriavzevii, 0.5 µg/mL (≈ 1.15 µM); in the experiment on Candida tropicalis it was 2 µg/mL (≈ 4.58 µM); with Aspergillus fumigatus, above 8 µg/mL; in the experiment with Cryptococcus neoformans, 2 µg/mL (≈ 4.58 µM).
For the compound `COc1ccc2cc([C@H](C)C(=O)N(C)CC(O)(Cn3ccnc3)c3ccc(F)cc3)ccc2c1` (stereo not given in full), the MIC50 is 0.5 µg/mL (≈ 1.08 µM) with Candida albicans; 1 µg/mL (≈ 2.17 µM) with Pichia kudriavzevii; 0.25 µg/mL (≈ 0.542 µM) in the experiment on Candida tropicalis; above 8 µg/mL in the experiment with Aspergillus fumigatus; 1 µg/mL (≈ 2.17 µM) in the experiment with Cryptococcus neoformans.
Turning to `COc1ccc2cc([C@H](C)C(=O)OC(Cn3ccnc3)c3ccc(F)cc3)ccc2c1` (stereo not given in full), the MIC50 was 0.5 µg/mL (≈ 1.19 µM) in the experiment with Candida albicans; 2 µg/mL (≈ 4.78 µM) in the experiment on Pichia kudriavzevii; 0.5 µg/mL (≈ 1.19 µM) in the experiment with Candida tropicalis; 4 µg/mL (≈ 9.56 µM) with Aspergillus fumigatus; 1 µg/mL (≈ 2.39 µM) in the experiment with Cryptococcus neoformans.
As for `C[C@H](C(=O)OC(Cn1ccnc1)c1ccc(F)cc1)c1cccc(C(=O)c2ccccc2)c1` (stereo not given in full), the MIC50 in the experiment with Candida albicans stood at 0.5 µg/mL (≈ 1.13 µM); in the experiment with Pichia kudriavzevii, 0.5 µg/mL (≈ 1.13 µM); in the experiment on Candida tropicalis, 2 µg/mL (≈ 4.52 µM); with Aspergillus fumigatus it was 4 µg/mL (≈ 9.04 µM); in the experiment on Cryptococcus neoformans, 0.5 µg/mL (≈ 1.13 µM).
`C[C@H](C(=O)OC(Cn1cnnn1)c1ccc(Cl)cc1)c1ccc(-c2ccccc2)c(F)c1` (stereo not given in full): the MIC50 with Candida albicans was 1 µg/mL (≈ 2.22 µM); in the experiment with Pichia kudriavzevii, 0.25 µg/mL (≈ 0.554 µM); in the experiment with Candida tropicalis it was 1 µg/mL (≈ 2.22 µM); in the experiment with Aspergillus fumigatus, 2 µg/mL (≈ 4.44 µM); with Cryptococcus neoformans, 0.5 µg/mL (≈ 1.11 µM).
As for `COc1ccc2cc([C@H](C)C(=O)OC(Cn3cnnn3)c3ccc(F)cc3)ccc2c1` (stereo not given in full), the MIC50 in the experiment with Candida albicans was 1 µg/mL (≈ 2.38 µM); in the experiment with Pichia kudriavzevii, 0.5 µg/mL (≈ 1.19 µM); in the experiment on Candida tropicalis, 2 µg/mL (≈ 4.76 µM); in the experiment with Aspergillus fumigatus it was above 8 µg/mL; with Cryptococcus neoformans, 1 µg/mL (≈ 2.38 µM).
As for `C[C@H](C(=O)OC(Cn1cnnn1)c1ccc(F)cc1)c1cccc(C(=O)c2ccccc2)c1` (stereo not given in full), the MIC50 in the experiment with Candida albicans was 0.5 µg/mL (≈ 1.12 µM); in the experiment on Pichia kudriavzevii, 0.5 µg/mL (≈ 1.12 µM); in the experiment with Candida tropicalis, 1 µg/mL (≈ 2.25 µM); in the experiment with Aspergillus fumigatus it was above 8 µg/mL; in the experiment with Cryptococcus neoformans, 0.5 µg/mL (≈ 1.12 µM).
Consider `C[C@H](C(=O)OC(Cn1cnnn1)c1ccc(F)cc1)c1ccc(-c2ccccc2)c(F)c1` (stereo not given in full), for which the MIC50 turned out to be 0.5 µg/mL (≈ 1.15 µM) in the experiment with Candida albicans; 0.5 µg/mL (≈ 1.15 µM) in the experiment with Pichia kudriavzevii; 0.25 µg/mL (≈ 0.575 µM) in the experiment on Candida tropicalis; 4 µg/mL (≈ 9.21 µM) with Aspergillus fumigatus; 1 µg/mL (≈ 2.3 µM) in the experiment on Cryptococcus neoformans.
For the compound `C[C@H](C(=O)N[C@H](Cn1ccnc1)c1ccccc1)c1ccc(-c2ccccc2)c(F)c1`, the MIC50 in the experiment on Candida albicans is 0.5 µg/mL (≈ 1.21 µM); in the experiment with Pichia kudriavzevii, 0.25 µg/mL (≈ 0.605 µM); in the experiment with Candida tropicalis it was 0.5 µg/mL (≈ 1.21 µM); in the experiment with Aspergillus fumigatus, 4 µg/mL (≈ 9.67 µM); with Cryptococcus neoformans it was 0.5 µg/mL (≈ 1.21 µM).
As for `C[C@H](C(=O)N[C@H](Cn1ccnc1)c1ccccc1)c1ccc(CC2CCCC2=O)cc1` (stereo not given in full), the MIC50 in the experiment on Candida albicans came to 2 µg/mL (≈ 4.81 µM); in the experiment with Pichia kudriavzevii, 0.5 µg/mL (≈ 1.2 µM); in the experiment on Candida tropicalis it was 0.5 µg/mL (≈ 1.2 µM); with Aspergillus fumigatus, 4 µg/mL (≈ 9.63 µM); in the experiment with Cryptococcus neoformans, 1 µg/mL (≈ 2.41 µM).
`C[C@H](C(=O)N(C)CC(O)(Cn1ccnc1)c1ccc(Cl)cc1Cl)c1ccc(-c2ccccc2)c(F)c1` (stereo not given in full): the MIC50 was 0.25 µg/mL (≈ 0.475 µM) with Candida albicans; 0.5 µg/mL (≈ 0.95 µM) in the experiment on Pichia kudriavzevii; 0.25 µg/mL (≈ 0.475 µM) with Candida tropicalis; 4 µg/mL (≈ 7.6 µM) in the experiment with Aspergillus fumigatus; 0.5 µg/mL (≈ 0.95 µM) with Cryptococcus neoformans.
As to `C[C@H](C(=O)N[C@H](Cn1ccnc1)c1ccccc1)c1cccc(C(=O)c2ccccc2)c1`, the MIC50 with Candida albicans is 1 µg/mL (≈ 2.36 µM); with Pichia kudriavzevii, 1 µg/mL (≈ 2.36 µM); with Candida tropicalis, 2 µg/mL (≈ 4.72 µM); with Aspergillus fumigatus, above 8 µg/mL; in the experiment with Cryptococcus neoformans, 0.5 µg/mL (≈ 1.18 µM).
`COc1ccc2cc([C@H](C)C(=O)OC(Cn3cnnn3)c3ccc(Cl)cc3)ccc2c1` (stereo not given in full): the MIC50 in the experiment on Candida albicans is 0.5 µg/mL (≈ 1.14 µM); in the experiment on Pichia kudriavzevii, 0.25 µg/mL (≈ 0.572 µM); in the experiment on Candida tropicalis, 0.5 µg/mL (≈ 1.14 µM); in the experiment on Aspergillus fumigatus, 4 µg/mL (≈ 9.16 µM); with Cryptococcus neoformans, 0.5 µg/mL (≈ 1.14 µM).
Regarding `C[C@H](C(=O)OC(Cn1cnnn1)c1ccc(Cl)cc1)c1cccc(C(=O)c2ccccc2)c1` (stereo not given in full), the MIC50 with Candida albicans is 0.5 µg/mL (≈ 1.08 µM); with Pichia kudriavzevii it was 1 µg/mL (≈ 2.17 µM); in the experiment with Candida tropicalis, 2 µg/mL (≈ 4.34 µM); in the experiment on Aspergillus fumigatus, above 8 µg/mL; with Cryptococcus neoformans, 0.5 µg/mL (≈ 1.08 µM).
For `C[C@H](C(=O)N[C@H](Cn1cncn1)c1ccccc1)c1ccc(-c2ccccc2)c(F)c1`, the MIC50 in the experiment on Candida albicans stood at 0.5 µg/mL (≈ 1.21 µM); with Pichia kudriavzevii it was 0.5 µg/mL (≈ 1.21 µM); in the experiment on Candida tropicalis it was 0.25 µg/mL (≈ 0.603 µM); in the experiment with Aspergillus fumigatus, 4 µg/mL (≈ 9.65 µM); in the experiment with Cryptococcus neoformans, 0.5 µg/mL (≈ 1.21 µM).
Consider `C[C@H](C(=O)N(C)CC(O)(Cn1ccnc1)c1ccc(F)cc1)c1ccc(-c2ccccc2)c(F)c1` (stereo not given in full), for which the MIC50 with Candida albicans was found to be 0.25 µg/mL (≈ 0.526 µM); in the experiment on Pichia kudriavzevii, 0.25 µg/mL (≈ 0.526 µM); with Candida tropicalis, 0.25 µg/mL (≈ 0.526 µM); in the experiment with Aspergillus fumigatus, 4 µg/mL (≈ 8.41 µM); with Cryptococcus neoformans it was 0.5 µg/mL (≈ 1.05 µM).

The term MIC50 denotes an inhibitory concentration at the 50% level, which refers to growth in some studies and to a panel of isolates in others.
